Legend:
serotonin M receptor = target: T1, serotonin M receptor (Oryctolagus cuniculus, UniProt A0A5F9C9J3); test: inhibition of the effect of serotonin on the isolated rabbit heart; settings: rabbit heart test, antagonism of serotonin; read-out: pA2 value (converted)
T1 construct: isolated rabbit heart; from tissue; host or cells: isolated rabbit heart
T1 sequence (A0A5F9C9J3 1-494): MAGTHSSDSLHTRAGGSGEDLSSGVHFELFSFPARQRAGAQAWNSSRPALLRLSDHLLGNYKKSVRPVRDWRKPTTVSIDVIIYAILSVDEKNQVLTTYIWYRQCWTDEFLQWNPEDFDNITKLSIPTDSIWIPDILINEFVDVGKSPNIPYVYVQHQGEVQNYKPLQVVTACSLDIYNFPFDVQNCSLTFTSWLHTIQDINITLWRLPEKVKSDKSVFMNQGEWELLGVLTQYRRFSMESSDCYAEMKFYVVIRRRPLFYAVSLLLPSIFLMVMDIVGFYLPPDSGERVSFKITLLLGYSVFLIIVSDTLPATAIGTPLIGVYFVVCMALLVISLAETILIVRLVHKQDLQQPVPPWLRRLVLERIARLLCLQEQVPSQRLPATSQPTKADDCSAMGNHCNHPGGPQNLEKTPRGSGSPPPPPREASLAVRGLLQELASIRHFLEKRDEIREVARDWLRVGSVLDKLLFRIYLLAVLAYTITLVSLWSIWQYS
From the text: The serotonin M receptor antagonist activity is also indicated by inhibiting the effect of serotonin on the isolated rabbit heart according to the method of J. R. Fozard and A. T. Moborak Ali, European Journal of Pharmacology, (1978) 49, 109-112 at concentrations of 10^-11 to 10^-5 M of the compound of the invention. pD'2 or pA2 values may be calculated in the conventional manner.

[1] = test system: M receptors for serotonin; settings: isolated rabbit vagus nerve; cited from earlier work
M receptors = settings: blister base on forearm of human volunteers; cited from earlier work

SMILES	Kb (serotonin M receptor) [nM]	block of the action of serotonin on C fibre action potential amplitude [1]	further results
CCN(CC)CCNC(=O)c1cc(Cl)c(N)cc1OC [metoclopramide]	79.4	–	–
CCN(CC)C(=O)[C@@H]1C=C2c3cccc4[nH]c(Br)c(c34)C[C@H]2N(C)C1 [BOL-148]	–	not blocked	–
CC[C@@H](CO)NC(=O)[C@@H]1C=C2c3cccc4c3c(cn4C)C[C@H]2N(C)C1 [methysergide]	–	not blocked	–
CCN(CC)C(=O)[C@@H]1C=C2c3cccc4[nH]cc(c34)C[C@H]2N(C)C1 [lysergic acid diethylamide]	–	–	inhibition of the algesic action of serotonin (M receptors): not inhibited
CSc1ccc2c(c1)C(N1CCN(C)CC1)Cc1ccccc1S2 (stereo not drawn) [metitepine]	–	not blocked	–
COc1cc(N(C)C)ccc1C(=O)O[C@@H]1C[C@H]2CC[C@@H](C1)N2Cc1ccccc1 [Example C-2]	0.01	–	–
